Assay results from paper PMC10216605, “Developing In Vitro Models to Define the Role of Direct Mitochondrial Toxicity in Frequently Reported Drug-Induced Rhabdomyolysis” (Biomedicines, 2023).
Structures can show the parent of a compound that is named as a salt. Where two headings read alike, the source gives them in different places.

Assays:
[1] = FAERS analysis of reported rhabdomyolysis cases per suspect drug; settings: for (%) of total rhabdomyolysis cases / Number of Rhabdomyolysis Cases / Number of Rhabdomyolysis Cases (n = 6583): FAERS 2004 to 31 March 2020; for (%) of total rhabdomyolysis cases: of 27,140 cases; for Number of Rhabdomyolysis Cases: total 27,140 rhabdomyolysis cases, some cases with more than one suspected drug; for ROR (reported odds ratio): rhabdomyolysis with suspected drug vs all other drugs in FAERS; for Number of Death Cases (n = 576): monotherapy rhabdomyolysis cases with fatal outcome; for (%) of monotherapy rhabdomyolysis cases: of 6583 cases; for Number of Rhabdomyolysis Cases (n = 6583): suspected drug reported as a single drug used (monotherapy)
Procedure: (§1) Due to the quarterly updating of the database by the FDA, the searches were performed using the term “rhabdomyolysis” on one occasion to ensure the data were extracted at that specified period. All individual files were downloaded and saved from this one timepoint to specify the analysis period used in this study. Further refinement was performed using Microsoft Excel to extract only cases where the suspect drug was reported as a monotherapy, using the generic name of the suspect drugs. To ensure data accuracy, any case reported by a consumer or company underwent further checks to ensure it had not been previously reported by a healthcare provider, by confirming that no duplication of case ID was present.

L6 cells [2] = assay: Acute metabolic switch assay (cellular ATP content, glucose vs galactose media) in L6 differentiated myotubes; settings: for IC50-ATPglu/IC50-ATPgal: ratio ≥ 2 = mitotoxic
Procedure: They were then seeded into collagen-coated wells (50 µg/mL in 0.02 M of acetic acid) at a density of 16,000 cells/100 μL/well (96 well plates) and 10,000 cells/100 μL/well (XF 96-well cell culture microplates). The cells were next incubated for 24 h in complete growth medium to promote adherence, after which the growth medium was removed and the cells washed twice with 1× HBSS. The L6 myoblasts were then cultured in differentiation medium consisting of high-glucose DMEM (25 mM) supplemented with L-glutamine (4 mM), sodium pyruvate (1 mM), HEPES (5 mM), and horse serum (2% v/v). Fresh differentiation medium was provided every 48 h for 7 days.
On the day of the assay, the media on the differentiated myotubes were replaced with either serum-free high-glucose (DMEM, 25 mM of glucose, 4 mM of L-glutamine, 1 mM of sodium pyruvate, and 5 mM of HEPES) or serum-free galactose (DMEM, 10 mM of galactose, 6 mM of L-glutamine, 1 mM of sodium pyruvate, and 5 mM of HEPES) media (100 µL) for 2 h (37 °C, 5% CO2). The glucose and galactose media were removed and replaced with drug-dosing solutions in either glucose or galactose media as appropriate, before incubation (2 h, 37 °C, 5% CO2). […] Vehicle control was included in each experiment.
The cellular ATP content was measured using a bioluminescence assay kit, alongside the concomitant measurement of protein using a bicinchoninic acid (BCA) assay kit to normalise ATP data to the total protein. Briefly, the cells were lysed using ATP lysis buffer (50 µL/well) and the plate was shaken (5 min). According to the manufacturer’s instructions, 40 µL of ATP reagent was added to each well containing 5 µL of cell lysate in a white 96-well plate. The […] luminescence signal was measured immediately using a plate reader (Varioskan, Thermo Scientific, Schaumburg, IL USA).

[3] = human
Procedure: as §1

L6 cells [4] = settings: 6 h exposure
Procedure: The mitochondrial stress test allowed confirmation of mitotoxicity and further identification of the specific mechanisms through quantification of OXPHOS parameters: basal respiration (BR), ATP-linked respiration (ALR), and spare respiratory capacity (SRC). On the day of the assay, for the analysis of the acute injection of the drug on differentiated myotubes, the differentiation media was replaced with 175 µL of unbuffered Seahorse Assay media supplemented with 25 mM of glucose, 4 mM of L-glutamine, 1 mM of sodium pyruvate, and 5 mM of HEPES pre-warmed to 37 °C, then incubated in a CO2 free incubator at 37 °C for 1 h. Alternately, in the pre-treatment strategy, differentiated myotubes were pre-treated with the drug for 5 h in differentiation medium, then transferred to a CO2-free incubator at 37 °C for 1 h. Next, the differentiation media were replaced with 175 µL of unbuffered Seahorse Assay media supplemented with the constituents stated above. Briefly, using the XF^e96 instrument (Seahorse extracellular flux analyser, Agilent Technologies, Santa Clara, CA, USA), the oxygen partial pressure in each well was allowed to reach equilibrium for 10 min. The oxygen consumption rate (OCR) was measured three times at baseline; then, there was a 3 min mix for each measurement followed by a 3 min wait. […] In the acute injection method, the drug injection was only performed at the end of the basal measurement cycles, followed by the mitochondrial inhibitors described above. The duration of the assay was 120 min (acute injection) and 90 min (pre-treatment strategy). From each mitochondrial stress test was determined the OCR parameters of non-mitochondrial respiration (NMR = lowest measurement after rotenone/antimycin A); basal respiration (BR = last measurement before oligomycin − NMR); proton-leak (PL = BR − lowest respiration after oligomycin); ATP-linked respiration (ALR = BR − PL); maximum respiratory capacity (MRC = highest measurement after FCCP − NMR); and spare respiratory capacity (SRC = MRC − BR) [42, 43].

[5] = Rattus norvegicus, L6, 2 h, read-out: ATP IC50 Galactose
[6] = Rattus norvegicus, L6, 2 h, read-out: ATP IC50 Glucose

## CC(=O)Nc1ccc(O)cc1 [Acetaminophen]
[1]
  (%) of total rhabdomyolysis cases: 1.7%
  Number of Rhabdomyolysis Cases: 449
  ROR (reported odds ratio): 0.3

## Cc1nnc2n1-c1ccc(Cl)cc1C(c1ccccc1)=NC2 [Alprazolam]
[1]
  (%) of total rhabdomyolysis cases: 1.1%
  Number of Rhabdomyolysis Cases: 290
  ROR (reported odds ratio): 0.4

## O=C1CCc2ccc(OCCCCN3CCN(c4cccc(Cl)c4Cl)CC3)cc2N1 [Aripiprazole]
[1]
  (%) of total rhabdomyolysis cases: 1.5%
  Number of Rhabdomyolysis Cases: 419
  ROR (reported odds ratio): 0.4

## CC(=O)Oc1ccccc1C(=O)O [Aspirin]
[1]
  (%) of total rhabdomyolysis cases: 1.2%
  Number of Rhabdomyolysis Cases: 313
  ROR (reported odds ratio): 0.2

## CC(C)c1c(C(=O)Nc2ccccc2)c(-c2ccccc2)c(-c2ccc(F)cc2)n1CC[C@@H](O)C[C@@H](O)CC(=O)O [Atorvastatin acid]
L6 cells [2]; L6 cells, 2 h exposure
  IC50-ATPglu/IC50-ATPgal: ~1 (n/d)
L6 cells [2]; L6 cells, 2 h exposure, listed as atorvastatin acid
  IC50-ATPglu/IC50-ATPgal: 1
L6 cells [2]; read-out: ATP IC50 Galactose, L6 cells, 2 h exposure, galactose serum-free media, mean ± S.D. (n = 3)
  IC50: > 300 µM
L6 cells [2]; read-out: ATP IC50 Glucose, L6 cells, 2 h exposure, glucose serum-free media, mean ± S.D. (n = 3)
  IC50: > 300 µM

## CC(C)c1c(C(=O)Nc2ccccc2)c(-c2ccccc2)c(-c2ccc(F)cc2)n1CC[C@@H](O)C[C@@H](O)CC(=O)O [Atorvastatin]
[1]
  (%) of total rhabdomyolysis cases: 12.2%
  Number of Rhabdomyolysis Cases: 3307
  Number of Death Cases (n = 576): 169
  (%) of monotherapy rhabdomyolysis cases: 21.1%
  ROR (reported odds ratio): 4.3
  Number of Rhabdomyolysis Cases (n = 6583): 1386

## CC[C@H]1OC(=O)[C@H](C)[C@@H](O[C@H]2C[C@@](C)(OC)[C@@H](O)[C@H](C)O2)[C@H](C)[C@@H](O[C@@H]2O[C@H](C)C[C@H](N(C)C)[C@H]2O)[C@](C)(OC)C[C@@H](C)C(=O)[C@H](C)[C@@H](O)[C@]1(C)O [Clarithromycin]
[1]
  (%) of total rhabdomyolysis cases: 1.6%
  Number of Rhabdomyolysis Cases: 427
  ROR (reported odds ratio): 1.2

## CN1CCN(C2=Nc3cc(Cl)ccc3Nc3ccccc32)CC1 [Clozapine]
[1]
  (%) of total rhabdomyolysis cases: 1.1%
  Number of Rhabdomyolysis Cases: 286
  Number of Death Cases (n = 576): 12
  (%) of monotherapy rhabdomyolysis cases: 1.8%
  Number of Rhabdomyolysis Cases (n = 6583): 116

## CCCCCCCCCC(=O)N[C@@H](Cc1c[nH]c2ccccc12)C(=O)N[C@H](CC(N)=O)C(=O)N[C@@H](CC(=O)O)C(=O)N[C@@H]1C(=O)NCC(=O)N[C@@H](CCCN)C(=O)N[C@@H](CC(=O)O)C(=O)N[C@H](C)C(=O)N[C@@H](CC(=O)O)C(=O)NCC(=O)N[C@H](CO)C(=O)N[C@@H]([C@H](C)CC(=O)O)C(=O)N[C@@H](CC(=O)c2ccccc2N)C(=O)O[C@@H]1C [Daptomycin]
L6 cells [2]; L6 cells, 2 h exposure
  IC50-ATPglu/IC50-ATPgal: ~1 (n/d)
L6 cells [2]; L6 cells, 2 h exposure, listed as daptomycin
  IC50-ATPglu/IC50-ATPgal: 1
L6 cells [2]; [5]
  IC50: > 100 µM
L6 cells [2]; [6]
  IC50: > 100 µM
[3]
  (%) of monotherapy rhabdomyolysis cases: 3.5%
  (%) of total rhabdomyolysis cases: 1.4%
  Number of Rhabdomyolysis Cases: 380
  Number of Rhabdomyolysis Cases (n = 6583): 227
  ROR (reported odds ratio): 3.2
[1]
  Number of Death Cases (n = 576): 18

## O=C1[C@H](CC[C@H](O)c2ccc(F)cc2)[C@@H](c2ccc(O)cc2)N1c1ccc(F)cc1 [Ezetimibe]
L6 cells [2]; L6 cells, 2 h exposure
  IC50-ATPglu/IC50-ATPgal: ~1 (n/d)
L6 cells [2]; L6 cells, 2 h exposure, listed as ezetimibe
  IC50-ATPglu/IC50-ATPgal: 1
L6 cells [2]; [5]
  IC50: > 300 µM
L6 cells [2]; [6]
  IC50: > 300 µM
[1]
  (%) of total rhabdomyolysis cases: 1.9%
  Number of Rhabdomyolysis Cases: 501
  Number of Death Cases (n = 576): 6
  (%) of monotherapy rhabdomyolysis cases: 2.5%
  ROR (reported odds ratio): 2.6
  Number of Rhabdomyolysis Cases (n = 6583): 166

## NS(=O)(=O)c1cc(C(=O)O)c(NCc2ccco2)cc1Cl [Furosemide]
[1]
  (%) of total rhabdomyolysis cases: 1.8%
  Number of Rhabdomyolysis Cases: 480
  ROR (reported odds ratio): 0.8

## Cc1ccc(C)c(OCCCC(C)(C)C(=O)O)c1 [Gemfibrozil]
[1]
  (%) of total rhabdomyolysis cases: 1.6%
  Number of Rhabdomyolysis Cases: 442
  ROR (reported odds ratio): 15.0
[1]; listed as gemfibrozil
  ROR (reported odds ratio): 15

## O=C(CCCN1CCC(O)(c2ccc(Cl)cc2)CC1)c1ccc(F)cc1 [Haloperidol]
[1]
  (%) of total rhabdomyolysis cases: 1.1%
  Number of Rhabdomyolysis Cases: 310
  ROR (reported odds ratio): 1.3

## Nc1nnc(-c2cccc(Cl)c2Cl)c(N)n1 [Lamotrigine]
[1]
  (%) of total rhabdomyolysis cases: 1.2%
  Number of Rhabdomyolysis Cases: 314
  ROR (reported odds ratio): 0.3

## CC[C@@H](C(N)=O)N1CCCC1=O [Levetiracetam]
L6 cells [2]; L6 cells, 2 h exposure
  IC50-ATPglu/IC50-ATPgal: ~1 (n/d)
L6 cells [2]; L6 cells, 2 h exposure, listed as levetiracetam
  IC50-ATPglu/IC50-ATPgal: 1
L6 cells [2]; [5]
  IC50: > 300 µM
L6 cells [2]; [6]
  IC50: > 300 µM
[1]
  (%) of total rhabdomyolysis cases: 2.2%
  Number of Rhabdomyolysis Cases: 588
  Number of Death Cases (n = 576): 8
  (%) of monotherapy rhabdomyolysis cases: 5.9%
  ROR (reported odds ratio): 0.9
  Number of Rhabdomyolysis Cases (n = 6583): 386

## CN(C)C(=N)N=C(N)N [Metformin]
[1]
  (%) of total rhabdomyolysis cases: 1.8%
  Number of Rhabdomyolysis Cases: 478
  ROR (reported odds ratio): 0.4

## Cc1cc2c(s1)Nc1ccccc1N=C2N1CCN(C)CC1 [Olanzapine]
[1]
  Number of Death Cases (n = 576): 23

## COc1ccc2[nH]c([S+]([O-])Cc3ncc(C)c(OC)c3C)nc2c1 (centres unmarked) [Omeprazole]
[1]
  (%) of total rhabdomyolysis cases: 1.3%
  Number of Rhabdomyolysis Cases: 363
  ROR (reported odds ratio): 0.5

## CC(C)C[C@H](CN)CC(=O)O [Pregabalin]
L6 cells [2]; [6]
  IC50: > 300 µM
L6 cells [4]
  Classification from pattern of changes in BR, ALR and SRC: direct inhibitors of the electron transport chain
[1]
  (%) of total rhabdomyolysis cases: 1.6%
  Number of Rhabdomyolysis Cases: 442
  Number of Death Cases (n = 576): 13
  (%) of monotherapy rhabdomyolysis cases: 2.0%
  Number of Rhabdomyolysis Cases (n = 6583): 132

## CC(C)c1cccc(C(C)C)c1O [Propofol]
L6 cells [2]
  Mitotoxicity classification in acute metabolic switch assay: multi-mechanistic
L6 cells [2]; [5]
  IC50: 242 ± 13.4 µM
L6 cells [2]; [6]
  IC50: > 300 µM
L6 cells [4]
  Classification from pattern of changes in BR, ALR and SRC: direct inhibitors of the electron transport chain
[1]
  (%) of total rhabdomyolysis cases: 1.6%
  Number of Rhabdomyolysis Cases: 434
  Number of Death Cases (n = 576): 70
  (%) of monotherapy rhabdomyolysis cases: 2.7%
  ROR (reported odds ratio): 2.2
  Number of Rhabdomyolysis Cases (n = 6583): 179

## OCCOCCN1CCN(C2=Nc3ccccc3Sc3ccccc32)CC1 [Quetiapine]
[1]
  (%) of total rhabdomyolysis cases: 2.8%
  Number of Rhabdomyolysis Cases: 761
  Number of Death Cases (n = 576): 26
  (%) of monotherapy rhabdomyolysis cases: 3.0%
  Number of Rhabdomyolysis Cases (n = 6583): 199

## CC(C)c1nc(N(C)S(C)(=O)=O)nc(-c2ccc(F)cc2)c1/C=C/[C@@H](O)C[C@@H](O)CC(=O)O [Rosuvastatin]
L6 cells [2]; L6 cells, 2 h exposure
  IC50-ATPglu/IC50-ATPgal: ~1 (n/d)
L6 cells [2]; L6 cells, 2 h exposure, listed as rosuvastatin
  IC50-ATPglu/IC50-ATPgal: 1
L6 cells [2]; [5]
  IC50: > 300 µM
L6 cells [2]; [6]
  IC50: > 300 µM
[1]
  (%) of total rhabdomyolysis cases: 7.4%
  Number of Rhabdomyolysis Cases: 2008
  Number of Death Cases (n = 576): 47
  (%) of monotherapy rhabdomyolysis cases: 17.0%
  ROR (reported odds ratio): 2.9
  Number of Rhabdomyolysis Cases (n = 6583): 1122

## CN[C@H]1CC[C@@H](c2ccc(Cl)c(Cl)c2)c2ccccc21 [Sertraline]
[1]
  (%) of total rhabdomyolysis cases: 1.3%
  Number of Rhabdomyolysis Cases: 347
  ROR (reported odds ratio): 0.4

## CCC(C)(C)C(=O)O[C@H]1C[C@@H](C)C=C2C=C[C@H](C)[C@H](CC[C@@H](O)C[C@@H](O)CC(=O)O)[C@H]21 [Simvastatin acid, Simvastatin hydroxy acid ammonium salt]
L6 cells [2]; L6 cells, 2 h exposure
  IC50-ATPglu/IC50-ATPgal: ~1 (n/d)
L6 cells [2]; L6 cells, 2 h exposure, listed as simvastatin acid
  IC50-ATPglu/IC50-ATPgal: 1
L6 cells [2]; [5]
  IC50: > 300 µM
L6 cells [2]; [6]
  IC50: > 300 µM

## COc1ccc(C(CN(C)C)C2(O)CCCCC2)cc1 (centres unmarked) [Venlafaxine]
[1]
  (%) of total rhabdomyolysis cases: 1.6%
  Number of Rhabdomyolysis Cases: 425
  ROR (reported odds ratio): 0.5
